What all share (assay type): biochemical, Hymenopellis radicata
Assay [1] has as its system T1, ORG (O. radicata α-galactosidase).
T1 construct: native, purified from commercial dry fruiting bodies; 74 kDa by gel filtration, SDS-PAGE bands 50 and 24 kDa
The assay is described as follows: p-nitrophenol release, absorbance at […] nm, Michaelis-Menten plot. The conditions noted are these: free enzyme; pNPG 0.5-4 mM, NaAc-HAc pH 4.6, 40 °C.

Assay [2] concerns the target T1, ORG (O. radicata α-galactosidase). The assay is described as follows: pNPG hydrolysis, absorbance at […] nm, Dixon plot. The conditions noted are these: mixed-type inhibition; pNPG 1.5-3 mM as substrate, NaAc-HAc pH 4.6, 40 °C.
Assay [3] relates to T1, ORG (O. radicata α-galactosidase). The assay is described as follows: reducing sugar release (DNS method), Michaelis-Menten plot. The conditions noted are these: free enzyme, 50 °C. An excerpt:
reducing sugar release (DNS method), Michaelis-Menten plot on ORG (O. radicata α-galactosidase)

In the case of `O=[N+]([O-])c1ccc(O[C@H]2O[C@H](CO)[C@H](O)[C@H](O)[C@H]2O)cc1` [4-nitrophenyl-α-D-galactopyranoside], in assay [1], the Km was 0.58 mM.
Consider `OC[C@H]1OC(O)[C@H](O)[C@@H](O)[C@H]1O` (some centres unmarked) [galactose], for which, in assay [2], the Ki (in general, a measure of affinity in units of concentration, obtained from inhibition or displacement) worked out at 5.94 mM.
Turning to `OC[C@H]1O[C@H](OC[C@H]2OC(O)[C@H](O)[C@@H](O)[C@@H]2O)[C@H](O)[C@@H](O)[C@H]1O` (some centres unmarked) [melibiose], in assay [2], the Ki is 1.86 mM.
`OC[C@H]1O[C@H](OC[C@H]2O[C@H](OC[C@H]3O[C@H](O[C@]4(CO)O[C@H](CO)[C@@H](O)[C@@H]4O)[C@H](O)[C@@H](O)[C@@H]3O)[C@H](O)[C@@H](O)[C@H]2O)[C@H](O)[C@@H](O)[C@H]1O` [stachyose]: the Km in assay [3] (stachyose 2-40 mM, read-out: Stachyose / Km) amounted to 19 mM.
On to `OC[C@H]1O[C@H](OC[C@H]2O[C@H](O[C@]3(CO)O[C@H](CO)[C@@H](O)[C@@H]3O)[C@H](O)[C@@H](O)[C@@H]2O)[C@H](O)[C@@H](O)[C@H]1O` [raffinose], for which the Km in assay [3] (raffinose 2-40 mM, read-out: Raffinose / Km) amounted to 16.5 mM.
